How the values were obtained:
[1] = system: Leishmania donovani strain AG83; test: Intracellular amastigote count in infected macrophages by Giemsa staining; format: cell-based; conditions: J774A.1 macrophages
Protocol: (§1) Cells and cell culture. A murine macrophage cell line J774A.1 (American Type Culture Collection, Rockville, Md.) was used. The cells were maintained at 37° C. in RPMI-1640 medium containing 10% heat inactivated fetal calf serum (FCS)(Biological Industries, Israel) in a CO2 incubator (5% CO2) as described previously^10. The macrophages were seeded onto tissue culture plates (60 mm) at a density of 1×10^5 cells/plate and grown for 48 hrs before use.
(§2) Parasite culture. Leishmania donovani strain AG83 (MHOM/IN/1983/AG83) promastigotes were maintained at 24° C. in modified M-199 medium (Gibco/BRL) supplemented with 100 units/ml penicillin (Sigma, U.S.A.), 100 µg/ml streptomycin (Sigma, U.S.A.), and 10% heat inactivated FCS.
(§3) Cholesterol depletion and estimation. J774A.1 cells grown on culture dishes were depleted of cholesterol by incubating for 30 min with 5 or 10 mM methyl-β-cyclodextrin (Sigma) at 37° C. in serum free medium^13,23. Total cellular cholesterol was estimated using Amplex Red cholesterol assay kit^27 (Molecular Probes). Cholesterol values were normalized to protein levels estimated using BCA assay reagent kit^28 (Pierce).
Infecting macrophages with Leishmania. Promastigotes were added onto the macrophage monolayers (both control and cholesterol-depleted) at a parasite: macrophage ratio of 10:1. The parasite-macrophage interaction was allowed to progress for 15, 30 and 90 min at 37° C. At the end of incubation, monolayers were washed with phosphate buffered saline (PBS) to remove free parasites and placed on ice to loosen adherent cells from the plates. The monolayers were gently scraped to resuspend the macrophage-parasite complexes and the resulting cell suspension was analyzed either for radiolabel incorporation or macrophage-associated fluorescence. The percentage of infected macrophages was >95% after 3 hr with 5–8 amastigotes per macrophage as determined by Giemsa staining.

[2] = system: Leishmania donovani strain AG83; test: Flow cytometric analysis of binding of FITC-labeled promastigotes to macrophages; format: cell-based; conditions: 10 mM, J774A.1 macrophages, parasite:macrophage 10:1, especially after 90 min
Protocol: as §1, §2
(§4) Cholesterol depletion and estimation. […]
(§5) Infecting macrophages with Leishmania. […] The monolayers were gently scraped to resuspend the macrophage-parasite complexes and the resulting cell suspension was analyzed either for radiolabel incorporation or macrophage-associated fluorescence. The percentage of infected macrophages was >95% after 3 hr with 5–8 amastigotes per macrophage as determined by Giemsa staining.
(§6) Labeling L. donovani AG83 promastigotes with tritium or FITC for binding studies. […] The fluorescence from the FITC-labeled parasites associated with the macrophages was analyzed with a Beckman Coulter ELITE ESP flow cytometer (Miami, Fla.) using EXPO 32 software.

J774A.1 macrophages = test: Cholesterol depletion and estimation (Amplex Red cholesterol assay kit); format: cell-based, murine
Protocol: as §1, §3

[3] = system: Leishmania donovani strain AG83; test: Ligand binding assay of [3H]thymidine labeled promastigotes to macrophages; format: cell-based; conditions: 10 mM, J774A.1 macrophages, parasite:macrophage 10:1, assayed till 90 min
Protocol: as §1, §2, §4, §5, §6

Substance: methyl-β-cyclodextrin
- number of amastigotes present compared to control cells ([1]; 5 mM, multiplicity of infection 10:1, 3 hr): concomitant reduction in the number of amastigotes
- amastigotes present compared to control cells ([1]; 10 mM): 50%
- reduction in the number of intracellular amastigotes ([1]; 10 mM, multiplicity of infection 10:1, 3 hr): ~50%
- fluorescence associated with cholesterol-depleted macrophages compared to control (FIG. 3) [2]: pronounced reduction in fluorescence
- reduction of cellular cholesterol (J774A.1 macrophages; 10 mM, 30 min incubation, total cellular cholesterol): ~40%
- total cellular cholesterol upon treatment (FIG. 1) (J774A.1 macrophages; 5 or 10 mM): concentration-dependent reduction
- reduction in macrophage-parasite interaction (attachment) compared to control cells [3]: ~45%

— patent US7186702B2, “Method of treating leishmaniasis using methyl-beta-cyclodextrin” (priority 2002, dated 2007)
